Structures are written as SMILES.

These results are taken from patent US7902260B2, “Medicament for preventive and/or therapeutic treatment of lower urinary tract symptom” (Kemphys Ltd., priority 2007, dated 2011).

This assay relates to Rat Hydrochloric Acid-induced Cystitis Model. Briefly: Evaluation in a rat hydrochloric acid-induced cystitis model (cystometry). Format: in vivo. As to the method: On day 1, Crlj:CD(SD) male rats at 8 weeks of age were anesthetized by 2% isofurane inhalation and the abdomen of the rats were opened. After cannula was inserted into the bladder and fixed, the incision was closed with suture. On day 2, 0.2 N hydrochloric acid was injected into the bladder through cannula for 15 min to induce cystitis. On day 3, the first oral administration of a drug was performed. Since then, the drug was administrated once a day continuously for 7 days. As a retinoid drug, 3 mg/kg tamibarotene (Am80, 4-[(5,6,7,8-tetrahydro-5,5,8,8-tetramethyl-2-naphthalenyl)-carbamoyl] benzoic acid) suspended in 0.5% carboxymethylcellulose was orally administered. For the control group, 0.5% carboxymethylcellulose was orally administered. On day 10, bladder function under unanesthetized and unrestrained state was evaluated by cystometry. Via a three-way stopcock, warm saline (37° C.) was infused into the tube which was inserted into the bladder. At the other end of a three-way stopcock, bladder pressure was measured for 60 min by a pressure amplifier through a pressure transducer. At the same time, the weight change of excreted urine was measured using a balance. From these measured data, basal bladder pressure, maximum bladder pressure, micturition interval, and micturition volume were calculated. 5 rats were used in each group, control and tamibarotene group.
Values were indicated as average ±standard error. The difference between averages of control group and tamibarotene group was evaluated by Student's t-test (***p<0.001 compared with control).

[1] abbreviates: 3 mg/kg oral once a day for 7 days, cystometry on day 10, unanesthetized unrestrained rats, average ± standard error.

Under setting [1], `CC1(C)CCC(C)(C)c2cc(NC(=O)c3ccc(C(=O)O)cc3)ccc21` [Tamibarotene, 4-[(5,6,7,8-tetrahydro-5,5,8,8-tetramethyl-2-naphthalenyl)-carbamoyl] benzoic acid] gave a Basal bladder pressure of 15.1 ± 2.8 mmHg and a Maximum bladder pressure of 36.6 ± 6.0 mmHg. The molecule further returned a Micturition volume (3 mg/kg oral once a day for 7 days, cystometry on day 10, average ± standard error) of 0.61 ± 0.24 g. Further, the Micturition interval (3 mg/kg oral once a day for 7 days, cystometry on day 10, average ± standard error, ***p<0.001 compared with control) is 884 ± 113*** second. The “Micturition interval compared to control group (in words)” value (3 mg/kg tamibarotene-administered group vs control, Student's t-test) is on record as “significantly improved”.
